Patent US10533021B2, “Boron-containing small molecules” (Anacor Pharmaceuticals, Inc., priority 2007, dated 2020)
Where a name gives a salt, the structure may show the parent alone.

Tests used:
[1] = system: E. coli; assay: Resistance of E. coli mutants selected against the compound (MIC); assay type: cell-based; conditions: E. coli mutants showing resistance to compound vs wildtype
Description: In an exemplary assay, activity of a representative compound against the editing domain was confirmed. To identify the target of the novel boron-containing antibacterial compound (A1), mutants in E. coli showing resistance to compound (A1) were isolated. […] The leuS gene from the mutants was cloned onto a plasmid and their resistance was confirmed by MIC. The editing domain from these mutants were sequenced and the mutations were all located in the editing domain of this enzyme.
All MIC testing of bacteria followed the Clinical and Laboratory Standards Institute (CLSI) guidelines for antimicrobial testing of aerobic bacteria (Methods for Dilution Antimicrobial Susceptibility Tests for Bacteria That Grow Aerobically; Approved Standard—Seventh Edition) (M07-A7) and anaerobic bacteria (Methods for Antimicrobial Susceptibility Testing of Anaerobic Bacteria; Approved Standard—Seventh Edition) (M11-A7).
Compare the minimal inhibitory concentration (MIC) of a tolC Escherichia coli strain bearing a pUC derived plasmid with and without an leuS gene insert.
If the MIC of the strain bearing the extra copies of leuS is greater than 2-fold more than the control strain then pour LB agar plates with four times the concentration of the MIC of the compound.
Plate 1×10^10 E. coli on ten plates containing 4×MIC of the compound. […]

[2] = Nail plate penetration; assay type: in vitro ADME
[3] = Solubility (water and formulation solvents); assay type: physicochemical; conditions: water

NCC1OB(O)c2ccccc21 (centres unmarked) [A1, 3-Aminomethyl-3H-benzo[c][1,2]oxaborol-1-ol) hydrochloride]
fold increase in resistance of E. coli mutants over wildtype [1]: 32-256 fold

Fc1ccc2c(c1)COB2c1ccccc1 [Compound 3]
penetration of the nail plate [2]: penetrates the nail plate poorly

Cc1cc(C2CCCCC2)n(O)c(=O)c1 [ciclopirox, reference compound]
penetration of the nail plate [2]: penetrates the nail plate poorly

OB1OCc2cc(F)ccc21 [compound 1]
solubility [3]: > 100 µg/mL

OB1OCc2cc(Cl)ccc21 [compound 2]
solubility [3]: > 100 µg/mL
